Test results taken from patent US8642510B2, “Inhibitors for brassinosteroid signalling” (GMI-Gregor Mendel-Institut fuer Molekulare Pflanzenbiologie …, priority 2008, dated 2014).
Entries after “also recorded” stand apart in the source; their conditions may differ.

Assays:
[1] = HPLC-analysis of plant extracts (fate of compound in planta); format: in vivo, A. thaliana; conditions: seedlings infiltrated, HPLC of extracts after 15 min
Method: FIG. 5: Estrified compounds are rapidly hydrolysed in planta. A. thaliana seedlings were infiltrated with ½MS medium containing 50 μM compound 10. Control samples were taken before infiltration (A) and analysed by HPLC. A biotransformation product (marked P) of compound 10 could be observed after 15 min (B). A chromatogram of a mixture of compounds 10, 15, and 17 (labelled with C10, C15 and C17, respectively) is shown for comparison (C). The small boxes inserted into the chromatograms show the UV spectra of the peaks in the range of 220 to 360 nm. mAU, milli absorption units recorded at 250 nm.
Two-week-old A. thaliana Co10 seedlings were vacuum infiltrated with ½MS or ½MS containing […] compound 10 as described previously (Rozhon et al., 2005). After 15 min and after 48 h samples were taken, rinsed with water and ground in liquid nitrogen to a fine powder. 100 mg powder were weighed into a reaction tube and 1 ml extraction buffer (20 mM TRIS/HCl pH6.8 dissolved in 20% acetonitrile) was added. […] The extracts were analysed by HPLC with the same settings as mentioned above.
To investigate these conflicting results, the fate of compound 10 in vivo was investigated. Seedlings were infiltrated with compound 10 and plant extracts subsequently analysed by HPLC. […]

[2] = tested on: ASKs (A. thaliana GSK-3/Shaggy-like kinases); experiment: In vitro kinase assay, GST-ASK fusion proteins with MBP and γ-[32P]-ATP; format: biochemical, Arabidopsis thaliana; conditions: compounds at 10 μM; result in words
Method: GST-ASK fusion proteins were incubated with MBP as substrate and γ-[32P]-ATP as co-substrate in the absence (−) or presence of different derivatives (the numbers correspond to Table 1). […] The compounds were used at a concentration of 10 μM. The proteins were separated by SDS-PAGE and the incorporated radioactive phosphate detected with a storage phosphor imager screen.
ASKs were expressed as GST-fusion proteins in E. coli BL21. In vitro kinase assays were performed by incubating 50 ng GST-fusion protein, 10 μg myelin basic protein (MBP; Sigma, St Louis, Mo.) as substrate and 0.15 MBq γ-[32P]-ATP as co-substrate at 25° C. for 30 min. The reaction buffer consisted of 20 mM HEPES pH7.4, 15 mM MgCl2, 5 mM EGTA and 1 mM DTT. For initial experiments cold ATP was included at concentrations up to 3 μM. The reaction products were separated by SDS-PAGE and the amount of radioactivity incorporated into MBP quantified using an Amersham storage phosphor imager screen and a Biorad Molecular Imager FX. In vivo kinase activity was detected by phosphorylation band-shift assays using BZR1-CFP as substrate.
Representatives of all groups were expressed as recombinant GST fusion proteins in E. coli.

## COC(=O)CCC(=O)Nc1ccc(I)cn1 [Compound 10, 4-[(5-iodopyrid-2-yl)amino]-4-oxobutanoic acid methyl ester]
[1]
  Stability in planta (hydrolysis of methyl ester to free acid): not stable in vivo but rapidly converted; also recorded: rapidly cleaved off
[2]
  Inhibition of ASKs in vitro (MBP phosphorylation): dramatically reduced inhibitory effects; also recorded: little potency in vitro; also recorded: little or no activity
